Laboratory results reported in patent publication US10617695B2, “Ophthalmic compositions containing alcaftadine” (Vistakon Pharmaceuticals, LLC, priority 2006, dated 2020).

Legend:
[1] = biological target: T1, human histamine H4 receptor (Homo sapiens, UniProt Q9H3N8); test: H4 receptor antagonist assay: shift of histamine EC50, Schild plot, in transfected SK-N-MC cells; type: cell-based
T1 construct: express a reporter gene construct and the human H4 receptor full-coding region; expressed in transfected cells; host or cells: SK-N-MC cells with a CRE-beta-galactosidase reporter
Experimental: Alcaftadine and 6,11-dihydro-11-(1-methyl-4-piperdinylidene)-5H-imidazo[2,1-b][3]benazepine-3-carboxylic acid (CAS #147083-93-0) were prepared at 10 mM in 100% dimethylsulfoxide (DMSO) for the binding assays and at 10 mM in Na/K phosphate buffer, pH 7.0, for the cellular assays. Cell pellets from SK-N-MC cells transfected with human H4 receptor were homogenized in 20 mM Tris-HCl/0.5 mM ethylendediaminetetraacetic acid (EDTA) pH 8.0 (TE buffer). Supernatants collected after centrifugation at 800 g were recentrifuged at 30,000 g for 30 min. Pellets were re-homogenized in TE buffer. […] Non-specific binding was defined with 100 μM cold histamine. […] Seven concentrations of compound were tested spanning 10^−11 to 10^−5 M with each concentration being run in triplicate. […] This assay was run twice and the results are reported as the average of the two runs. SK-N-MC cell lines were created that express a reporter gene construct and the human H4 receptor full-coding region. The reporter gene was β-galactosidase under the control of cyclic adenosine monophosphate (cAMP) responsive elements. Cells were plated in 96-well plates the night before the assay. Antagonists were added 10 min prior to the addition of histamine, which was added directly to the cell medium. Forskolin (5 μM final concentration) was added 10 min after the addition of histamine. Cells were returned to the incubator for 6 h at 37° C. The medium was then aspirated and cells were lysed with 25 μL of 0.1× assay buffer (10 mM sodium phosphate, pH 8, 0.2 mM MgSO4, 0.01 mM MnCl2) and incubated at room temperature for 10 min. […] Color was quantitated on a microplate reader at absorbance 570 nm. […]
To test whether alcaftadine or 6,11-dihydro-11-(1-methyl-4-piperdinylidene)-5H-imidazo[2,1-b][3]benazepine-3-carboxylic acid (CAS #147083-93-0) were antagonists of the H4 receptor, the ability of the compounds shift the EC50 of the histamine inhibition of forskolin-induced cAMP increases was assessed in SK-N-MC cells transfected with the human histamine H4 receptor. […]

[2] = test system: RBL-CCR1 (Rat Basophil Leukemia-Chemokine Receptor-1) cell line; test: Mast cell degranulation / cell stabilization in RBL-CCR1 cells; type: cell-based
Experimental: The cell stabilization potential of alcaftadine was evaluated using the RBL-CCR1 (Rat Basophil Leukemia-Chemokine Receptor-1) cell line as a way of investigating its ability to effect mast cell stabilization. The use of basophil cell lines to assess anti-allergic drugs for cell stabilization potential is well established. Physiologically, basophils are similar to mast cells, containing pre-formed inflammatory mediators that are released through a similar degranulation process involving IgE cross-linking. Because these cell lines are readily available, they present efficiencies over conducting stabilization assays in mast cell lines.
Cultured RBL-CCR1 cells were sensitized to anti-DNP IgE. Following sensitization, cells were treated with various concentrations of alcaftadine or its major active metabolite (0.083%, 0.0083% and 0.00083%) or ophthalmic vehicle (placebo), and stimulated with DNP and/or MIP-1a (Macrophage Inflammatory Protein-1 alpha, a degranulation enhancer) to induce degranulation. A 10× and 100× placebo control solution (ophthalmic vehicle solution) in D-DEM (Dulbecco's modified Eagle's medium) was also employed.
However, co-stimulation induced a robust degranulation response.

[3] = biological target: T1, human histamine H4 receptor; test: [3H]histamine competition binding to membranes of SK-N-MC cells transfected with human H4 receptor
E-cadherin = test: Integrity of conjunctival epithelium after conjunctival allergen challenge: E-cadherin expression (confocal microscopy); type: in vivo, mice
Experimental: To investigate the ability of alcaftadine to maintain the integrity of conjunctival epithelium, changes in the expression of the tight junction proteins ZO-1 and E-cadherin (an induction for E-cadherin and qualitative change-from focal to diffuse for ZO-1) were evaluated following specific conjunctival allergen challenge. These changes are associated with an increased permeability of the conjunctival and other epithelial tissues. This in vivo experiment examined what effect alcaftadine (topical administration 1 and 2 hours pre-challenge) had on the modulation of these proteins.
Mice were sensitized with short ragweed (SRW) in aluminum hydroxide via intraperitoneal administration (Day 0, 7, and 15) and eye drop instillation (Day 8 and 15). On Day 20, mice were further sensitized with eye drops containing only SRW. On Day 27, the mice were treated topically with either 5 μL alcaftadine or vehicle at 1 and 2 hours prior to challenge. SRW was instilled topically to both eyes. The expression of these proteins in naive eyes were also monitored. Changes in the expression of the tight junction proteins ZO-1 and E-cadherin were observed 1-hour post conjunctival allergen challenge with SRW. The proteins were detected using FITC-conjugated monoclonal antibodies specific for ZO-1 and E-cadherin and were visualized by confocal microscopy (Ziess). […]

T1 sequence (Q9H3N8 whole entry): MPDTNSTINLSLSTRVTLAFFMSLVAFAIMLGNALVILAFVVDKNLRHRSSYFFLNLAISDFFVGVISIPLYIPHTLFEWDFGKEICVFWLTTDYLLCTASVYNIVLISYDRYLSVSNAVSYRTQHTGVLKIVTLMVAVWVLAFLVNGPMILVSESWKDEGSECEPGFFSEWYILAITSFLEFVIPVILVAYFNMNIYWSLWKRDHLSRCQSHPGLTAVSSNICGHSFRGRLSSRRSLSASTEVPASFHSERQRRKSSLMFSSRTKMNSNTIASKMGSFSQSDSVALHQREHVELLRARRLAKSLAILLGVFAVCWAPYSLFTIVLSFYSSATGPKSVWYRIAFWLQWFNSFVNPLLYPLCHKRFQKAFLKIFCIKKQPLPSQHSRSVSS

## CN1CCC(=C2c3ccccc3CCn3c(C=O)cnc32)CC1 [Alcaftadine, 6,11-dihydro-11-(1-methyl-4-piperidinylidene)-5H-imidazo[2,1-b][3]benzazepine-3-carboxaldehyde]
[1]; parallel and rightward shifts in the histamine dose response curves
  mode of action at the receptor: competitive antagonist
[1]; x-intercept of the Schild plot
  pA2: 5.6
[2]
  overall membrane stabilization: effective membrane stabilizing agents
[2]; 10× dose level
  stabilization effect added to that of placebo: enhanced the stabilization effect
[2]; […], DNP-HSA alone, MIP-1a alone, and co-stimulation
  degranulation at the highest concentration: unanticipated and significant degranulation
[2]; co-stimulation assay, concentrations of […] and […], p<0.0001 for both concentrations
  cell stabilization compared to co-stimulation control and negative controls (placebo 10× and placebo 100×): superior at cell stabilization
[3]; average of two runs, 10 nM [3H]histamine, Cheng and Prusoff
  Ki: 2900 nM
[3]; compared with pA2
  pKi: 5.5
E-cadherin; 5 μL topical at 1 and 2 hours prior to challenge, 1-hour post challenge
  E-cadherin staining, alcaftadine treatment versus naive (negative control): no or minimal difference
E-cadherin; following specific conjunctival allergen challenge
  induction of E-cadherin expression: inhibits the induction of E-cadherin expression
